Experimental data: patent US8680159B2, “Bradykinin 1 receptor modulating compounds” (Gruenenthal GmbH, priority 2010, dated 2014)
Like-named read-outs stand apart in the source and are kept apart here.

Key:
[1] = target: T1, human B1R receptor (CHO K1 cells stably transfected with the human B1R gene) (Homo sapiens, UniProt P46663); assay: Functional study on the bradykinin receptor 1 (B1R), Ca2+ fluorescence (Fluo-4) FLIPR/Novostar assay, hB1R cells; format: cell-based
T1 construct: expressed in transfected cells; host or cells: CHO K1 cells (Chinese hamster ovary), stably transfected
T1 sequence (P46663 1-353): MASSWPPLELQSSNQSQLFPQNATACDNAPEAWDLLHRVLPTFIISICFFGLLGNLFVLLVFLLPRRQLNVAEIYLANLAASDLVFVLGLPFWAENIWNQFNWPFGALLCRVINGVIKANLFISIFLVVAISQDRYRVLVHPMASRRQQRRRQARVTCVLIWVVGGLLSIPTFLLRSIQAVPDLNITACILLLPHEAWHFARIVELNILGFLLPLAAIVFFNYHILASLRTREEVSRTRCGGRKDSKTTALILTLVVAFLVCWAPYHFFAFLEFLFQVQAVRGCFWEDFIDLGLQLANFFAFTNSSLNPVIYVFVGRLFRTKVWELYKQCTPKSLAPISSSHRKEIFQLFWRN
Summary of the method: (§1)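 Test compounds (10 μM) were added first and the Ca2+ rise was scored as % activation against Lys-Des-Arg9-bradykinin (≥50 nM, human) or Des-Arg9-bradykinin (≥1 μM, rat). After 6-20 min, the matching agonist was given at its EC80, and % inhibition relative to maximal achievable inhibition was calculated.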

[2] = target: T2, B1R receptor of the rat (CHO K1 cells stably transfected with the B1R gene of the rat) (Rattus norvegicus, UniProt P97583); assay: Functional study on the bradykinin receptor 1 (B1R), Ca2+ fluorescence (Fluo-4) FLIPR/Novostar assay, rB1R cells; format: cell-based; details: for inhibition at 10 µM: CHO-K1, 10 μM, read-out: % Inhibition (r-B1R) at 10 μM
T2 construct: expressed in transfected cells; host or cells: CHO K1 cells (Chinese hamster ovary), stably transfected
T2 sequence (P97583 1-337): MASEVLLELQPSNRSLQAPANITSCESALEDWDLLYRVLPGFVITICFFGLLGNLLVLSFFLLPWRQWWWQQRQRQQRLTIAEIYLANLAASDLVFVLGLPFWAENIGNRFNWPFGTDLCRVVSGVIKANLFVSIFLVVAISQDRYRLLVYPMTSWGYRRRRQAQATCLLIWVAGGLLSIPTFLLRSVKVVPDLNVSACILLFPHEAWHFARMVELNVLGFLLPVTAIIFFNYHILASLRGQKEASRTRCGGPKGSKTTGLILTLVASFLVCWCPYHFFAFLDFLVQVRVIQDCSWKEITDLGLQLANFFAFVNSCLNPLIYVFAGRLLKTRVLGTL
Summary of the method: as §1

[3] = CHO-K1, read-out: % Inhibition (h-B1R) at 10 μM
[4] = CHO-K1, read-out: % inhibition (human B1R) at 10 μM

Structure (SMILES)	inhibition at 10 µM [1, 3] [%]	inhibition at 10 µM [2] [%]	% Inhibition (r-B1R) at 10 μM [2] [%]	inhibition at 10 µM [1, 4] [%]
CN(C(=O)c1ccc2c(c1)C(NC(=O)c1cccc(Cl)c1Cl)CCC2)C1CCN(c2ccncc2)CC1 (stereo not drawn) [CC_H-03, 8-[(2,3-Dichloro-benzoyl)amino]-N-methyl-N-(1-pyridin-4-yl-piperidin-4-yl)-5,6,7,8-tetrahydro-naphthalene-2-carboxylic acid amide]	99	103		
CN(C(=O)c1ccc2c(c1)C(NC(=O)c1cc(F)ccc1Cl)CCC2)C1CCN(c2ccncc2)CC1 (stereo not drawn) [CC_H-04, 8-[(2-Chloro-5-fluoro-benzoyl)amino]-N-methyl-N-(1-pyridin-4-yl-piperidin-4-yl)-5,6,7,8-tetrahydro-naphthalene-2-carboxylic acid amide]	99		104	
CN(C(=O)c1ccc2c(c1)C(NC(=O)C1CCCCC1)CCC2)C1CCN(c2ccncc2)CC1 (stereo not drawn) [CC_H-05, 8-(Cyclohexanecarbonylamino)-N-methyl-N-(1-pyridin-4-yl-piperidin-4-yl)-5,6,7,8-tetrahydro-naphthalene-2-carboxylic acid amide]	98	103		
CN(C(=O)c1ccc2c(c1)C(NC(=O)CCC1CCCC1)CCC2)C1CCN(c2ccncc2)CC1 (stereo not drawn) [CC_H-06, 8-(3-Cyclopentyl-propanoylamino)-N-methyl-N-(1-pyridin-4-yl-piperidin-4-yl)-5,6,7,8-tetrahydro-naphthalene-2-carboxylic acid amide]	100	104		
CN(C(=O)c1ccc2c(c1)C(NC(=O)c1sccc1Cl)CCC2)C1CCN(c2ccncc2)CC1 (stereo not drawn) [CC_H-07, 3-Chloro-N-[7-[methyl-(1-pyridin-4-yl-piperidin-4-yl)-carbamoyl]-1,2,3,4-tetrahydro-naphthalen-1-yl]-thiophene-2-carboxylic acid amide]	99	103		
CN(C(=O)c1ccc2c(c1)C(NC(=O)c1cncnc1)CCC2)C1CCN(c2ccncc2)CC1 (stereo not drawn) [CC_H-08, N-[7-[Methyl-(1-pyridin-4-yl-piperidin-4-yl)-carbamoyl]-1,2,3,4-tetrahydro-naphthalen-1-yl]-pyrimidine-5-carboxylic acid amide]	99	104		
Cc1cccc(C)c1C(=O)NC1CCCc2ccc(C(=O)N(C)C3CCN(c4ccncc4)CC3)cc21 (stereo not drawn) [CC_H-09, 8-[(2,6-Dimethyl-benzoyl)amino]-N-methyl-N-(1-pyridin-4-yl-piperidin-4-yl)-5,6,7,8-tetrahydro-naphthalene-2-carboxylic acid amide]	99	103		
CN(C(=O)c1ccc2c(c1)C(NC(=O)c1c(Cl)cccc1C(F)(F)F)CCC2)C1CCN(c2ccncc2)CC1 (stereo not drawn) [CC_H-11, 8-[[2-Chloro-6-(trifluoromethyl)-benzoyl]amino]-N-methyl-N-(1-pyridin-4-yl-piperidin-4-yl)-5,6,7,8-tetrahydro-naphthalene-2-carboxylic acid amide]	99	103		
CN(C(=O)c1ccc2c(c1)C(NC(=O)c1cnccc1C(F)(F)F)CC2(C)C)C1CCN(c2ccncc2)CC1 (stereo not drawn) [CC_H-12, N-[3,3-Dimethyl-6-[methyl-(1-pyridin-4-yl-piperidin-4-yl)-carbamoyl]-1,2-dihydro-inden-1-yl]-4-(trifluoromethyl)-pyridine-3-carboxylic acid amide]	100	104		
CN(C(=O)c1ccc2c(c1)CCC2NC(=O)c1sccc1Cl)C1CCN(c2ccncc2)CC1 (stereo not drawn) [CC_H-13, 3-Chloro-N-[5-[methyl-(1-pyridin-4-yl-piperidin-4-yl)-carbamoyl]-2,3-dihydro-1H-inden-1-yl]-thiophene-2-carboxylic acid amide]	100	78		
CN(C(=O)c1ccc2c(c1)C(NC(=O)C1CCCCC1)CC2(C)C)C1CCN(c2ccncc2)CC1 (stereo not drawn) [CC_H-14, 3-(Cyclohexanecarbonylamino)-N,1,1-trimethyl-N-(1-pyridin-4-yl-piperidin-4-yl)-2,3-dihydro-indene-5-carboxylic acid amide]	99	104		
CN(C(=O)NC1CC(C)(C)c2ccc(C(=O)N(C)C3CCN(c4ccncc4)CC3)cc21)c1ccccc1Cl (stereo not drawn) [CC_H-15, 3-[[(2-Chlorophenyl)-methyl-carbamoyl]amino]-N,1,1-trimethyl-N-(1-pyridin-4-yl-piperidin-4-yl)-2,3-dihydro-indene-5-carboxylic acid amide]	99	101		
CN(C(=O)c1ccc2c(c1)C(NS(=O)(=O)c1c(Cl)cccc1C(F)(F)F)CCC2)C1CCN(c2ccncc2)CC1 (stereo not drawn) [CC_H-16, 8-[[[2-Chloro-6-(trifluoromethyl)-phenyl]sulfonyl]amino]-N-methyl-N-(1-pyridin-4-yl-piperidin-4-yl)-5,6,7,8-tetrahydro-naphthalene-2-carboxylic acid amide]	99	104		
CN(C(=O)c1ccc2c(c1)C(NC(=O)c1c(Cl)cccc1C(F)(F)F)CC2(C)C)C1CCN(c2ccncc2)CC1 (stereo not drawn) [CC_H-17, 3-[[2-Chloro-6-(trifluoromethyl)-benzoyl]amino]-N,1,1-trimethyl-N-(1-pyridin-4-yl-piperidin-4-yl)-2,3-dihydro-indene-5-carboxylic acid amide]	98		104	

Other lines, results leading:

inhibition at 10 µM [1, 3] [%]	inhibition at 10 µM [2] [%]	% Inhibition (r-B1R) at 10 μM [2] [%]	inhibition at 10 µM [1, 4] [%]	Structure (SMILES)
			98	COc1cc(C(=O)N[C@@H]2CCc3ccc(C(=O)N(C)C4CCN(c5cc(C)nc(C)n5)CC4)cc32)on1 [Example H-224, N-[(1R)-6-[[1-(2,6-Dimethyl-pyrimidin-4-yl)-piperidin-4-yl]-methyl-carbamoyl]-2,3-dihydro-1H-inden-1-yl]-3-methoxy-isoxazole-5-carboxylic acid amide]
			100	COc1cc(C(=O)N[C@@H]2CCc3ccc(C(=O)N(C)C4CCN(c5ccnc(C)c5)CC4)cc32)on1 [Example H-225, 3-Methoxy-N-[(1R)-6-[methyl-[1-(2-methyl-pyridin-4-yl)-piperidin-4-yl]-carbamoyl]-2,3-dihydro-1H-inden-1-yl]-isoxazole-5-carboxylic acid amide]
			99	Cc1cc(N2CCC(N(C)C(=O)c3ccc4c(c3)[C@H](NC(=O)C3CCCC3)CC4)CC2)nc(C)n1 [Example H-226, (3R)-3-(Cyclopentanecarbonylamino)-N-[1-(2,6-dimethyl-pyrimidin-4-yl)-piperidin-4-yl]-N-methyl-2,3-dihydro-1H-indene-5-carboxylic acid amide]
			100	Cc1cc(N2CCC(N(C)C(=O)c3ccc4c(c3)[C@H](NC(=O)C3CCCC3)CC4)CC2)ccn1 [Example H-227, (3R)-3-(Cyclopentanecarbonylamino)-N-methyl-N-[1-(2-methyl-pyridin-4-yl)-piperidin-4-yl]-2,3-dihydro-1H-indene-5-carboxylic acid amide]
			96	CN(C)c1nccc(N2CCC(N(C)C(=O)c3ccc4c(c3)[C@H](NC(=O)C3CCCC3)CC4)CC2)n1 [Example H-228, (3R)-3-(Cyclopentanecarbonylamino)-N-[1-(2-dimethylamino-pyrimidin-4-yl)-piperidin-4-yl]-N-methyl-2,3-dihydro-1H-indene-5-carboxylic acid amide]
			98	CCN(C(=O)C1CCCC1)[C@@H]1CCc2ccc(C(=O)N(C)C3CCN(c4cc(C)nc(C)n4)CC3)cc21 [Example H-229, (3R)-3-(Cyclopentanecarbonyl-ethyl-amino)-N-[1-(2,6-dimethyl-pyrimidin-4-yl)-piperidin-4-yl]-N-methyl-2,3-dihydro-1H-indene-5-carboxylic acid amide]
			98	Cc1cc(N2CCC(N(C)C(=O)c3ccc4c(c3)[C@H](N(C)C(=O)C3CCCC3)CC4)CC2)nc(C)n1 [Example H-230, (3R)-3-(Cyclopentanecarbonyl-methyl-amino)-N-[1-(2,6-dimethyl-pyrimidin-4-yl)-piperidin-4-yl]-N-methyl-2,3-dihydro-1H-indene-5-carboxylic acid amide]
			100	CN(C(=O)c1ccc2c(c1)[C@H](NC(=O)c1ccccc1Cl)CC2)C1CCN(c2ccnc(N)n2)CC1 [Example H-244, (3R)-N-[1-(2-Amino-pyrimidin-4-yl)-piperidin-4-yl]-3-[(2-chloro-benzoyl)amino]-N-methyl-2,3-dihydro-1H-indene-5-carboxylic acid amide]
